From PubChem BioAssay (NCI)
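Cultured in 96-well plates, cells were exposed to test compound for 48 hours across five concentrations. The concentration for 50% growth inhibition is given as GI50. TGI: concentration producing complete growth inhibition.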

Key:
Assay in all cases: DTP human tumour cell line panel, 48 h
[1] = system: SNB-75 CNS
[2] = system: HS 578T breast
[3] = system: OVCAR-4 ovarian
[4] = system: HCC-2998 colon
[5] = system: BT-549 breast
[6] = system: MALME-3M melanoma
[7] = system: IGROV1 ovarian
[8] = system: OVCAR-5 ovarian
[9] = system: OVCAR-8 ovarian
[10] = system: KM12 colon
[11] = system: MDA-MB-435
[12] = system: RXF 393 renal
[13] = system: SK-MEL-28 melanoma
[14] = system: K-562 leukemia
[15] = system: SK-OV-3 ovarian
[16] = system: 786-0 renal
[17] = system: MOLT-4 leukemia
[18] = system: HCT-15 colon
[19] = system: T-47D breast
[20] = system: SF-539 CNS
[21] = system: HOP-92 NSCLC
[22] = system: UACC-62 melanoma
[23] = system: CCRF-CEM leukemia
[24] = system: UO-31 renal
[25] = system: SR leukemia
[26] = system: SW-620 colon
[27] = system: HOP-62 NSCLC
[28] = system: RPMI-8226 leukemia
[29] = system: COLO 205 colon
[30] = system: MDA-MB-231 breast
[31] = system: SF-268 CNS
[32] = system: NCI-H226 lung
[33] = system: NCI/ADR-RES ovarian
[34] = system: TK-10 renal
[35] = system: UACC-257 melanoma
[36] = system: HL-60(TB) leukemia
[37] = system: SK-MEL-5 melanoma
[38] = system: LOX IMVI melanoma
[39] = system: SN12C renal
[40] = system: OVCAR-3 ovarian
[41] = system: PC-3 prostate
[42] = system: MCF7 breast
[43] = system: HT29 colon
[44] = system: NCI-H522 lung
[45] = system: SF-295 CNS
[46] = system: ACHN renal
[47] = system: U251 CNS
[48] = system: SNB-19 CNS
[49] = system: SK-MEL-2 melanoma
[50] = system: A549 NSCLC
[51] = system: CAKI-1 renal
[52] = system: DU-145 prostate
[53] = system: NCI-H23 lung
[54] = system: HCT-116 colon

## COc1cc(CC2C(=O)NC(=O)NC2=O)ccc1OCc1ccccc1
[1]
  GI50: 38 µg/mL
[2]
  GI50: 91.3 µg/mL
[3]
  GI50: 59.8 µg/mL

## Cc1ccc(C)c(-c2csc(Nc3ccc(C)c(C)c3)n2)c1
[4]
  GI50: > 100 µM
  TGI: > 100 µM
[1]
  GI50: 15.8 µM
  TGI: 53.2 µM
[5]
  GI50: > 100 µM
  TGI: > 100 µM
[6]
  GI50: > 100 µM
  TGI: > 100 µM
[7]
  GI50: 62.8 µM
  TGI: > 100 µM
[8]
  GI50: > 100 µM
  TGI: > 100 µM
[9]
  GI50: 74.7 µM
  TGI: > 100 µM
[10]
  GI50: > 100 µM
  TGI: > 100 µM
[11]
  GI50: > 100 µM
  TGI: > 100 µM
[12]
  GI50: 24.2 µM
  TGI: > 100 µM
[13]
  GI50: > 100 µM
  TGI: > 100 µM
[14]
  GI50: > 100 µM
  TGI: > 100 µM
[15]
  GI50: > 100 µM
  TGI: > 100 µM
[16]
  GI50: 39.5 µM
  TGI: > 100 µM
[17]
  GI50: > 100 µM
  TGI: > 100 µM
[18]
  GI50: 4.08 µM
  TGI: > 100 µM
[19]
  GI50: > 100 µM
  TGI: > 100 µM
[20]
  GI50: 44.6 µM
  TGI: > 100 µM
[21]
  GI50: 29 µM
  TGI: > 100 µM
[22]
  GI50: > 100 µM
  TGI: > 100 µM
[23]
  GI50: > 100 µM
  TGI: > 100 µM
[24]
  GI50: > 100 µM
  TGI: > 100 µM
[25]
  GI50: > 100 µM
  TGI: > 100 µM
[2]
  GI50: 30.6 µM
  TGI: > 100 µM
[26]
  GI50: > 100 µM
  TGI: > 100 µM
[27]
  GI50: 36.8 µM
  TGI: > 100 µM
[28]
  GI50: > 100 µM
  TGI: > 100 µM
[29]
  GI50: > 100 µM
  TGI: > 100 µM
[30]
  GI50: > 100 µM
  TGI: > 100 µM
[31]
  GI50: 29.8 µM
  TGI: > 100 µM
[32]
  GI50: > 100 µM
  TGI: > 100 µM
[33]
  GI50: > 100 µM
  TGI: > 100 µM
[34]
  GI50: > 100 µM
  TGI: > 100 µM
[3]
  GI50: 48.3 µM
  TGI: > 100 µM
[35]
  GI50: > 100 µM
  TGI: > 100 µM
[36]
  GI50: > 100 µM
  TGI: > 100 µM
[37]
  GI50: > 100 µM
  TGI: > 100 µM
[38]
  GI50: > 100 µM
  TGI: > 100 µM
[39]
  GI50: > 100 µM
  TGI: > 100 µM
[40]
  GI50: 66.3 µM
  TGI: > 100 µM
[41]
  GI50: 7 µM
  TGI: > 100 µM
[42]
  GI50: 35.9 µM
  TGI: > 100 µM
[43]
  GI50: > 100 µM
  TGI: > 100 µM
[44]
  GI50: 67.1 µM
  TGI: > 100 µM
[45]
  GI50: 57.9 µM
  TGI: > 100 µM
[46]
  GI50: 82.2 µM
  TGI: > 100 µM
[47]
  GI50: 52.9 µM
  TGI: > 100 µM
[48]
  GI50: 77 µM
  TGI: > 100 µM
[49]
  GI50: > 100 µM
  TGI: > 100 µM
[50]
  GI50: > 100 µM
  TGI: > 100 µM
[51]
  GI50: > 100 µM
  TGI: > 100 µM
[52]
  GI50: > 100 µM
  TGI: > 100 µM
[53]
  GI50: 65.7 µM
  TGI: > 100 µM
[54]
  GI50: > 100 µM
  TGI: > 100 µM
